Data published in PMC5756575, “In Vitro Biotransformation, Safety, and Chemopreventive Action of Novel 8-Methoxy-Purine-2,6-Dione Derivatives” (Applied Biochemistry and Biotechnology, 2017).

What was measured:
[1] = DPPH radical scavenging assay; type: biochemical; conditions: DPPH 250 μM, compound at 250 μM, 30 min, 517 nm
Protocol: The capacity of selected 8-methoxy-purine-2,6-dione derivatives to scavenge stable free radical DPPH was assessed. A blank and a triplicate of 10 different concentrations of each compound or of each positive control (gallic and ascorbic acids) were evaluated in the experiment. Aforesaid concentrations of compounds were obtained by dilution from a 1000 μM stock solution in methanol. One hundred microliters of DPPH stock solution were added to each well; later, 100 μL of the corresponding compound dilution were added. Consequently, the final concentration of DPPH radical was 250 μM, whereas the final concentrations of the tested compounds or positive controls were 500, 375, 250, 125, 62.5, 50, 37.5, 25, 12.5, and 6.25 μM. Afterwards, the 96-plate was wrapped with aluminum and stored in the dark 30 min prior to the spectrophotometric measurement at a 517-nm wavelength. The obtained absorbances were used to calculate the percentage of radical scavenged by the action of a compound or of a positive control at each concentration using a formula 100 × (A 0 − A m)/A 0. In this equation A m is the average absorbance of the three triplicates measured at the corresponding concentration and A 0 is the average absorbance of DPPH radical in the absence of the tested substance. Knowing inhibition data at the different concentrations, IC50 was calculated when applicable.

[2] = Microsomal stability assay; type: in vitro ADME, rat; conditions: pH 7.4, rat liver microsomes, 20 μM, 0.4 mg/mL protein
Protocol: Compounds 1 and 3 were studied in a biotransformation assay using rat liver microsomes following procedures described previously. The reagents used in this assay were levallorphan (internal standard) and NADPH-regenerating system, which contained phosphate buffer (pH 7.4), NADP^+, glucose-6-phosphate, and glucose-6-phosphate dehydrogenase. The final protein concentration in the assay was 0.4 mg/mL. Compounds 1 and 3 were tested at a final concentration of 20 μM.
The amount of a parental compound remaining in a solution after biotransformation was monitored using LC-MS/MS as described previously in “Cunninghamella Biotransformation Assay.” Graphs representing ln of percentage of parent compound remaining versus incubation time were drawn to calculate in vitro half-time (t1/2) from the slope of linear regression. To obtain intrinsic clearance (Clint) of a tested compound in rat liver microsomal assay, t1/2 previously calculated was substituted at the equation Clint = [(Vmic/Pmic) × 0.693/t1/2], being Vmic and Pmic the volume of incubation in microliters and the amount of incubated protein in milligrams, respectively.
Agilent 1100 HPLC system (Agilent Technologies, Waldbronn, Germany) equipped with a Xbridge™ C18 analytical column (2.1 × 30 mm, […]; Waters, Dublin, Ireland) was used in the chromatographic separation of LC-MS/MS analysis. An elution gradient of acetonitrile and water, with 0.1% of formic acid, was used as a mobile phase. MS spectra were taken at Applied Biosystems MDS Sciex API 200 triple quadrupole mass analyzer (Concord, Ontario, Canada) with an electrospray ionization (ESI) interface between HPLC and MS.

COc1nc2c(c(=O)n(C)c(=O)n2C)n1CCCC(=O)NCc1ccccc1 [Compound 3, N-benzyl-4-(8-methoxy-1,3-dimethyl-2,6-dioxo-purin-7-yl)butanamide]
maximum radical scavenging percentage observed [1]: 6.56% | half-life at 20 μM ([2]; read-out: in vitro half-time (t1/2)): 17.7 min | microsomal CLint at 20 μM ([2]; read-out: intrinsic clearance (Clint)): 97.9 µL/min/mg
